Experimental data taken from ChEMBL document CHEMBL3507680, “University of Dundee, Gates Library screen for HepG2 cell viability”.

Assay: Human HepG2 cell viability assay in 384 well format
Type: toxicity, cell-based
Design: dose 125 nL, time 70.5 hour; cytotoxicity at 70.5 h: concentration not given beside the values
Conditions: HepG2 cells, read-out: Inhibition

Row | Compound | cytotoxicity at 70.5 h [%]
1 | CN(CCc1ccc2c(c1)CCO2)C1CCS(=O)(=O)CC1 | 16.1
2 | Cc1ccc(S(C)(=O)=O)cc1C(=O)NS(C)(=O)=O | -7.69
3 | CCc1ccc(CC)c(NCC(=O)N2CCCC(NC(C)=O)C2)c1 (stereo not drawn) | -6.55
4 | CCC(C)NS(=O)(=O)Cc1cccc(NC(=O)C(C)C)c1 (stereo not drawn) | -2.19
5 | CC(=O)NC1CCCN(C(=O)CNc2cc(Cl)cc(Cl)c2)C1 (stereo not drawn) | -5.65
6 | COc1ccc(C)c(NC(=O)NCc2cccc(N(C)C)n2)c1 | -6.19
7 | COCc1c(Cl)cccc1NC(=O)NCc1cccc(N(C)C)n1 | 1.02
8 | COc1c(C(=O)N2CCC(COCc3ccccc3)C2)c(C)nn1C (stereo not drawn) | -0.0423
9 | CC(C)C(O)CCNC(=O)Nc1cc(F)ccc1-n1cccn1 (stereo not drawn) | 14.9
10 | Cc1cnn(C2CN(Cc3nnc(C4CC4)o3)C2)c1 | -10.1
11 | CC(C)c1nc(C2CCCN2c2ccnc(C3CCCC3)n2)no1 (stereo not drawn) | -6.75
12 | Cc1cnn(C2CN(Cc3noc(C)n3)C2)c1 | -6.5
13 | Cc1cc(=O)n2nc(Oc3cccc(I)c3)sc2n1 | -20.9
14 | CN(C)c1ncccc1CNC(=O)NCC(c1cccs1)N(C)C (stereo not drawn) | -23.8
15 | CN(C)CCn1c2c(ccc1=O)CCN(Cc1ccncc1)CC2 | -4.6
16 | Cc1noc(C)c1CN1CCn2cc(CN3CCOCC3)nc2C1 | -0.251
17 | COCCN(C)C(=O)c1nc2c(s1)CCCN2c1ccc(C)nn1 | -1.66
18 | O=C(CC1CC1)N1C[C@H]2CCN[C@H]2C1 | -4.97
19 | CC(C)(C)CC(=O)N1C[C@H]2CCN[C@H]2C1 | -2.71
20 | O=C1CO[C@@H]2CN(S(=O)(=O)c3ccc(F)cc3)C[C@H]2N1 | 15.2
21 | COCC1COCCC12CCN(S(=O)(=O)c1ccc(C)cc1)CC2 (stereo not drawn) | -4.01
22 | CN(C)CCOCc1cncc2c1CCN(C(=O)c1cscn1)C2 | -3.85

Row | Compound | cytotoxicity at 70.5 h [%]
23 | COc1cc(N2C[C@@H]3COC[C@@H](Cc4nc(C)no4)[C@@H]3C2)ncn1 | -7.51
24 | COCC(=O)N1CCC2(CC1)CN(CC1CC1)c1ccc(F)cc12 | 2.37
25 | CC1c2ncc(Cn3cccn3)n2CCN1S(=O)(=O)C1CC1 (stereo not drawn) | -5.83
26 | O=C(c1ccno1)N1CC[C@@H]2CN(C3CCOCC3)CCO[C@@H]2C1 | -5.94
27 | Cc1nc(-c2ccccc2)nc2c1CCN(Cc1nccn1C)CC2 | -10.4
28 | Cn1c2c(c(=O)n1C)CN(C(=O)c1cnccn1)CCC2 | -8.23
29 | CN(C)CC(=O)N1CCO[C@@H]2CC(COCc3ccncc3)C[C@H]21 (stereo partly drawn) | -8
30 | Cn1nccc1-c1cnc2n1CCC21CCN(C(=O)C2(C)CC2)CC1 | -11
31 | COCCN1CCN(c2cc(OC)ncn2)Cc2ccc(C)nc21 | -10.4
32 | O=C(Cc1ccccn1)N1C[C@H]2CN(Cc3ccccn3)C[C@H]2C1 | -10
33 | CC(C)N(C)Cc1cc(=O)n2c(n1)CN(C(=O)c1ccc[nH]1)CCC2 | 0.329
34 | Cc1cccc(CN2C[C@@H]3CN(C(=O)C4CCOC4)C[C@@H]3C2=O)c1 (stereo partly drawn) | 2.05
35 | O=C(C1CCOC1)N1C[C@H]2CN(Cc3cccc(F)c3)C(=O)[C@H]2C1 (stereo partly drawn) | -0.77
36 | Cc1cccc(CN2CCC3(CC2)COC(COCC2CC2)C3)n1 (stereo not drawn) | -6.77
37 | COc1cc(N2CCN(CC3CC3)c3nc(C)ccc3C2)ncn1 | 0.313
38 | Cc1csc(CN2CCC3(CC2)COC(COc2ccccn2)C3)n1 (stereo not drawn) | -5.82
39 | Cn1nccc1-c1cnc2n1CCNC21CCN(C(=O)C2(C)CC2)CC1 | -9.28
40 | CCS(=O)(=O)N1CCc2c(COC)cncc2C1 | 17.2
41 | CC(C)n1c2ccccc2c2c1cc(C(=O)N(C)C)n2S(C)(=O)=O | 13.1
42 | CNC(=O)NCC1CCC2(CCN(C(=O)c3ccccc3)CC2)CO1 (stereo not drawn) | -2.1
43 | O=C(c1ccc[nH]1)N1CCCn2c(CN3CCCCC3)nnc2C1 | -5.4
44 | COc1cccc(N2CCN(C(=O)C(C)Oc3ccccc3)CC2=O)c1 (stereo not drawn) | 20.9

Row | Compound | cytotoxicity at 70.5 h [%]
45 | Cn1nnnc1SCCNC1CCN(c2ccc3c(c2)OCO3)CC1 | 4.51
46 | CSc1ncc(CN(C)C(C)c2cccnc2)cn1 (stereo not drawn) | -0.91
47 | N[C@H]1CN(C(=O)Cc2ccc(CO)cc2)C[C@@H]1C1CC1 | 34.3
48 | Cc1cncc(NC(=O)c2ccc(CN3CC[C@H](O)C3)cc2)c1 | 19.1
49 | CCOc1ncccc1CNc1cc(COC)ncn1 | 1.28
50 | COc1cc2nc(NCCN3CCNC3=O)cc(C)c2cc1OC | -0.54
51 | CCOC(=O)C1(CCOC)CCN(Cc2nccn2CC)CC1 | -7.56
52 | Cc1cc(C)n(CC(C)NC(=O)C2(c3ccccc3F)CC2)n1 (stereo not drawn) | -7.8
53 | CC(C)Cc1nc(CN(C)c2cc(C(C)C)nc3ccnn23)no1 | -10.6
54 | CN(Cc1cc(C(C)(C)C)n[nH]1)C(=O)c1c[nH]nc1-c1cccc(F)c1 | -8
55 | O=C(CC1CCCC1)N[C@H]1CN(Cc2c[nH]cn2)C[C@@H]1C1CC1 | 20.4
56 | Cc1nc(O)cc(CCNC(=O)CN2CCCCCC2)n1 | 1.28
57 | COCc1nc(NC(C)c2c(C)n[nH]c2C)c2cnn(C)c2n1 (stereo not drawn) | -5.38
58 | Cc1cc(C(F)(F)F)nc(CNc2cc(C)nc3cc(C)nn23)n1 | -2.86
59 | CCN(Cc1nc(COC)no1)Cc1ccccc1OCC(=O)O | 20
60 | Cc1ccsc1CN1CCC(c2nnc(Cn3cccn3)n2C)CC1 | -2.95
61 | Cc1ccc(CN2C[C@@H](C(=O)O)[C@H](c3cccnc3)C2)s1 | 1.41
62 | Cc1ncc(CN2CCN(C(=O)N(C)C)[C@@H]3CS(=O)(=O)C[C@@H]32)cn1 | -26.5
63 | NCC1Cc2cc(-c3cncc(C(=O)N4CCCCC4)n3)cc(F)c2O1 (stereo not drawn) | -4.24
64 | COCCc1noc(CN2CC(Cc3ccccc3)CC2=O)n1 (stereo not drawn) | -20.5
65 | CC1(C)[C@H]2CC=C(CN3CCCn4nc(CNS(C)(=O)=O)cc4C3)[C@@H]1C2 | -8.88
66 | CN1CCN(S(=O)(=O)c2ccc(C(=O)N3CC[C@@H](O)C3)cc2)CC1=O | -5.98

Row | Compound | cytotoxicity at 70.5 h [%]
67 | C=C(C)COc1cccc(C(=O)N2CCC3(CCOCC3)CC2)c1 | 3.55
68 | c1cnc(NCc2cncc3c2CCN(CC2CC2)C3)nc1 | 3.44
69 | Cc1nccc(NCc2cncc3c2CCN(CC2CC2)C3)n1 | 9.03
70 | CC(C)N(C)Cc1cncc2c1CCN(CC1CC1)C2 | 15.2
71 | Cc1cc(CN2C[C@H](OCC3CCOCC3)[C@H]3COC[C@H]32)oc1C | -0.082
72 | O=C(C1CCOCC1)N1C[C@H]2CCC[C@@]2(COc2cccnc2)C1 | -1.29
73 | CN(C)CCN1C(=O)CCCC12CCCN(C(=O)c1cc[nH]n1)C2 (stereo not drawn) | -4.9
74 | O=C(c1ccoc1)N1CCOC2(COCCN(CC3CC3)C2)C1 (stereo not drawn) | -1.92
75 | c1cc(CN2CC[C@@H]3CN(c4cnccn4)C[C@@H]3C2)ccn1 | -3.4
76 | O=C(c1cscn1)N1CCc2c(COCC3CC3)cncc2C1 | -1.4
77 | CN(C)Cc1nc2c(o1)CN(S(=O)(=O)c1cccs1)C2 | -9.46
78 | Cc1ccc(C(=O)N2CC[C@@H]3CN(C4CCOCC4)CCO[C@@H]3C2)o1 | -7.78
79 | O=S(=O)(c1cccs1)N1Cc2nc(CN3CCCCC3)oc2C1 | -8.94
80 | O=C(c1cccs1)N1CC[C@@H]2CN(C3CCOCC3)CCO[C@@H]2C1 | -6.31
81 | Cc1ccoc1C(=O)N1CC[C@@H]2CN(C3CCOCC3)CCO[C@@H]2C1 | -0.955
82 | Cc1nnc(N2CCCC3(CN(c4ccccn4)CCO3)C2)o1 (stereo not drawn) | 1.16
83 | CN1C(=O)CCC12CCN(c1ccc(C#N)cn1)CC2 | -8.99
84 | c1cnc(N2C[C@H]3CCN(Cc4ccncc4)C[C@H]3C2)nc1 | -7.09
85 | Cc1ccc(N2C[C@H]3CCN(Cc4ccncc4)C[C@H]3C2)nn1 | -9.91
86 | CCc1ccc(S(=O)(=O)N2Cc3c(CN(C)C)nn(C)c3C2)cc1 | -5.86
87 | O=C(c1ccno1)N1CCO[C@@H]2CC(COCc3ccccn3)C[C@H]21 (stereo partly drawn) | -6.23
88 | O=C(C1CCC1)N1C[C@@H]2CN(Cc3ccncc3)C(=O)[C@@H]2C1 | -12.5

Row | Compound | cytotoxicity at 70.5 h [%]
89 | Cc1nc(N2CCOCC2)nc2c1CCN(Cc1nccn1C)CC2 | -11.2
90 | Cc1nc(C)c2c(n1)CCN(Cc1nccn1C)CC2 | -8.56
91 | CN(C)Cc1cc(=O)n2c(n1)CN(C(=O)c1ccc[nH]1)CCC2 | -2.94
92 | CCN1CCC(c2nc3ccc(NC4CCC4)cn3n2)CC1 | -4.48
93 | CS(=O)(=O)NCc1cc(=O)n2c(n1)CN(CC1CC1)CCC2 | 7.49
94 | CCCN1CCC(c2nc3ccc(-c4cccc(OC)c4)cn3n2)CC1 | -1.57
95 | CCCS(=O)(=O)N1CCC2(CC1)CN(CC1CCOC1)c1ccccc12 (stereo not drawn) | 3.95
96 | CCOC(=O)[C@]12CCCN(Cc3cccs3)C[C@H]1CN(CCOC)C2 | 1.08
97 | c1ccc(N2CC[C@H](OCC3CC3)[C@@H]2Cc2cccnc2)nc1 | -3.44
98 | c1cncc(OC[C@@]23CCC[C@@H]2CN(CC2CCOCC2)C3)c1 | -1.42
99 | CCOC(=O)[C@]12CCCN(Cc3cccs3)C[C@H]1CN(CC(C)C)C2 | -2.32
100 | CCN1CCC2(C1)CN(S(=O)(=O)c1cn(C)cn1)C2 | -5.09
101 | O=C(c1ccncc1)N1CC[C@@H]2CN(C3CCOCC3)CCO[C@@H]2C1 | -9.58
102 | CC(C)CN1CCC2(C1)CN(S(=O)(=O)c1cn(C)cn1)C2 | 4.36
103 | c1cnc(N2C[C@H]3CCN(CCN4CCCC4)C[C@H]3C2)cn1 | -5.43
104 | CC(C)N1CCO[C@H]2CN(Cc3cc[nH]n3)C[C@H]21 | -5.26
105 | COCCN1CCO[C@H]2CN(Cc3cccc(C)n3)C[C@H]21 | -5.32
106 | COCCN1CCN(c2ccc(C)nn2)Cc2ccc(C)nc21 | -3.87
107 | Cn1nccc1-c1nnn2c1COCC(CNC1CCOCC1)C2 (stereo not drawn) | 0.0787
108 | CCS(=O)(=O)N1CCc2c(COCCN(C)C)cncc2C1 | 2.79
